{"source": "patent US9809574B2", "about": "“Isoindoline or isoquinoline compounds, a process for their preparation and pharmaceutical compositions containing them” (LES LABORATOIRES SERVIER, priority 2013, dated 2017)", "key": {"[1]": {"target": "Bcl-2 protein (histag-Bcl-2, UniProtKB P10415) (Homo sapiens (Human), UniProt P10415)", "sequence (P10415 whole entry)": "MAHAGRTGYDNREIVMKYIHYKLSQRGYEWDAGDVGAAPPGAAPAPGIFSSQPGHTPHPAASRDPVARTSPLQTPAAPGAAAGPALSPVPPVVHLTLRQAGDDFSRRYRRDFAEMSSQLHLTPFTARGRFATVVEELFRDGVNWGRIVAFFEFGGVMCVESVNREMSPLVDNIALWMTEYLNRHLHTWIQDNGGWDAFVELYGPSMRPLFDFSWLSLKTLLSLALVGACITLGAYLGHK", "experiment": "Inhibition of Bcl-2 by the fluorescence polarisation technique", "format": "binding", "conditions": "fluorescence polarisation test; incubation for 2 hours; read-out: IC50 (nM) Bcl-2 FP", "text": "For partial inhibitors, the percentage fluorescence polarisation inhibition for a given concentration of the test compound is indicated."}, "[2]": {"system": "RS4; 11 leukaemia cell line", "experiment": "In vitro cytotoxicity, Microculture Tetrazolium Assay (MTT)", "format": "cell-based", "conditions": "11 cells exposed for 48 hours", "protocol": "The cytotoxicity studies were carried out on the RS4; 11 leukaemia cell line and on H146 small Cell Lung Carcinoma cell line. The cells are distributed onto microplates and exposed to the test compounds for 48 hours. The cell viability is then quantified by a colorimetric assay, the Microculture Tetrazolium Assay (Cancer Res., 1987, 47, 939-942)."}}, "note": "Where a name gives a salt, the structure may show the parent alone.", "data": [{"compound": "CN(C(=O)c1cc(-c2cc3c(cc2C(=O)N2Cc4ccccc4C[C@H]2CN2CCOCC2)CN(S(=O)(=O)Cc2ccccc2)C3)n2c1CCCC2)c1ccc(O)cc1", "note": "[Example 38, N-(4-Hydroxyphenyl)-N-methyl-3-{6-[(3S)-3-(morpholin-4-ylmethyl)-1,2,3,4-tetrahydroisoquinoline-2-carbonyl]-2-phenylmethanesulfonyl-2,3-dihydro-1H-isoindol-5-yl}-5,6,7,8-tetrahydroindolizine-1-carboxamide]", "values": [{"measurement": "IC50", "setting": "[1]", "result": 23, "unit": "nM"}, {"measurement": "IC50", "setting": "[2]; Homo sapiens", "result": 532, "unit": "nM"}]}, {"compound": "C[C@@H]1Cc2ccccc2CN1C(=O)c1cc2c(cc1-c1cc(C(=O)N(C)c3ccc(O)cc3)c3n1CCCC3)CN(C(=O)N1CCC(c3ccccc3)C1)C2", "note": "(stereo partly drawn) [Example 66, N-(4-Hydroxyphenyl)-N-methyl-3-{6-[(3R)-3-methyl-1,2,3,4-tetrahydroisoquinoline-2-carbonyl]-2-(3-phenylpyrrolidine-1-carbonyl)-2,3-dihydro-1H-isoindol-5-yl}-5,6,7,8-tetrahydroindolizine-1-carboxamide]", "values": [{"measurement": "IC50", "setting": "[1]", "result": 16, "unit": "nM"}, {"measurement": "IC50", "setting": "[2]; Homo sapiens", "result": 80, "unit": "nM"}]}, {"compound": "C[C@@H]1Cc2ccccc2CN1C(=O)c1cc2c(cc1-c1cc(C(=O)N(c3ccccc3)c3ccc(O)cc3)c3n1CCCC3)CN(C(=O)OC(C)(C)C)C2", "note": "[Example 43, tert-Butyl 5-{1-[(4-hydroxyphenyl)(phenyl)carbamoyl]-5,6,7,8-tetrahydroindolizin-3-yl}-6-[(3R)-3-methyl-1,2,3,4-tetrahydroisoquinoline-2-carbonyl]-2,3-dihydro-1H-isoindole-2-carboxylate]", "values": [{"measurement": "IC50", "setting": "[1]", "result": 77, "unit": "nM"}, {"measurement": "IC50", "setting": "[2]; Homo sapiens", "result": 502, "unit": "nM"}]}, {"compound": "Cc1c(C(=O)N(C)c2ccc(O)cc2)cc(-c2cc3c(cc2C(=O)N2Cc4ccccc4C[C@H]2CN2CCOCC2)CN(C(=O)CCc2ccccc2)CC3)n1C", "note": "[Example 130, N-(4-Hydroxyphenyl)-N,1,2-trimethyl-5-{7-[(3S)-3-(morpholin-4-ylmethyl)-1,2,3,4-tetrahydroisoquinoline-2-carbonyl]-2-(3-phenylpropanoyl)-1,2,3,4-tetrahydroisoquinolin-6-yl}-1H-pyrrole-3-carboxamide]", "values": [{"measurement": "IC50", "setting": "[1]", "result": 3.1, "unit": "nM"}, {"measurement": "IC50", "setting": "[2]; Homo sapiens", "result": 36, "unit": "nM"}]}, {"compound": "Cc1ccccc1OC(=O)N1CCc2cc(-c3cc(C(=O)N(C)c4ccc(O)cc4)c4n3CCCC4)c(C(=O)N3Cc4ccccc4C[C@H]3CN3CCOCC3)cc2C1", "note": "[Example 100, 2-Methylphenyl 6-{1-[(4-hydroxyphenyl)(methyl)carbamoyl]-5,6,7,8-tetrahydroindolizin-3-yl}-7-[(3S)-3-(morpholin-4-ylmethyl)-1,2,3,4-tetrahydroisoquinoline-2-carbonyl]-1,2,3,4-tetrahydroisoquinoline-2-carboxylate]", "values": [{"measurement": "IC50", "setting": "[1]", "result": 3.9, "unit": "nM"}, {"measurement": "IC50", "setting": "[2]; Homo sapiens", "result": 6.5, "unit": "nM"}]}, {"compound": "Cc1c(C(=O)N(C)c2ccc(O)cc2)cc(-c2cc3c(cc2C(=O)N2Cc4ccccc4C[C@H]2C)CN(C(=O)Oc2ccccc2CCC(=O)N(C)C)CC3)n1C", "note": "[Example 775, 2-[2-(Dimethylcarbamoyl)ethyl]phenyl 6-{4-[(4-hydroxyphenyl)(methyl)carbamoyl]-1,5-dimethyl-1H-pyrrol-2-yl}-7-[(3R)-3-methyl-1,2,3,4-tetrahydroisoquinoline-2-carbonyl]-1,2,3,4-tetrahydroisoquinoline-2-carboxylate]", "values": [{"measurement": "IC50", "setting": "[1]", "result": 2.4, "unit": "nM"}, {"measurement": "IC50", "setting": "[2]; Homo sapiens", "result": 6.3, "unit": "nM"}]}, {"compound": "Cc1c(C(=O)N(C)c2ccccc2)cc(-c2cc3c(cc2C(=O)N2Cc4ccccc4C[C@H]2CN2CCOCC2)CN(C(=O)Cc2ccccc2)CC3)n1C", "note": "[Example 117, N,1,2-trimethyl-5-{7-[(3S)-3-(morpholin-4-ylmethyl)-1,2,3,4-tetrahydroisoquinoline-2-carbonyl]-2-(2-phenylacetyl)-1,2,3,4-tetrahydroisoquinolin-6-yl}-N-phenyl-1H-pyrrole-3-carboxamide]", "values": [{"measurement": "IC50", "setting": "[1]", "result": 2.5, "unit": "nM"}, {"measurement": "IC50", "setting": "[2]; Homo sapiens", "result": 39, "unit": "nM"}]}, {"compound": "Cc1c(C(=O)N(C)c2ccc(O)cc2)cc(-c2cc3c(cc2C(=O)N2Cc4ccccc4C[C@H]2C)CN(C(=O)OC2CCC(N)CC2)CC3)n1C", "note": "(stereo partly drawn) [Example 801, (1r,4r)-4-Aminocyclohexyl 6-{4-[(4-hydroxyphenyl)(methyl)carbamoyl]-1,5-dimethyl-1H-pyrrol-2-yl}-7-[(3R)-3-methyl-1,2,3,4-tetrahydroisoquinoline-2-carbonyl]-1,2,3,4-tetrahydroisoquinoline-2-carboxylate hydrochloride]", "values": [{"measurement": "IC50", "setting": "[1]", "result": 2.7, "unit": "nM"}, {"measurement": "IC50", "setting": "[2]", "result": "> 150", "unit": "nM"}]}, {"compound": "Cc1c(C(=O)N(C)c2ccccc2)cc(-c2cc3c(cc2C(=O)N2Cc4ccccc4C[C@H]2CN2CCOCC2)CN(C(=O)Oc2cnc4[nH]ccc4c2)CC3)n1C", "note": "[Example 633, 1H-Pyrrolo[2,3-b]pyridin-5-yl 6-{1,5-dimethyl-4-[methyl(phenyl)carbamoyl]-1H-pyrrol-2-yl}-7-[(3S)-3-(morpholin-4-ylmethyl)-1,2,3,4-tetrahydroisoquinoline-2-carbonyl]-1,2,3,4-tetrahydroisoquinoline-2-carboxylate]", "values": [{"measurement": "IC50", "setting": "[1]", "result": 6.1, "unit": "nM"}, {"measurement": "IC50", "setting": "[2]; Homo sapiens", "result": 22, "unit": "nM"}]}, {"compound": "Cc1ccc(CC(C)C(=O)N2Cc3cc(C(=O)N4Cc5ccccc5C[C@H]4C)c(-c4cc(C(=O)N(C)c5ccc(O)cc5)c5n4CCCC5)cc3C2)cc1", "note": "(stereo partly drawn) [Example 25, N-(4-Hydroxyphenyl)-N-methyl-3-{6-[(3R)-3-methyl-1,2,3,4-tetrahydroisoquinoline-2-carbonyl]-2-{2-[(4-methylphenyl)methyl]propanoyl}-2,3-dihydro-1H-isoindol-5-yl}-5,6,7,8-tetrahydroindolizine-1-carboxamide]", "values": [{"measurement": "IC50", "setting": "[1]", "result": 29, "unit": "nM"}, {"measurement": "IC50", "setting": "[2]; Homo sapiens", "result": 144, "unit": "nM"}]}, {"compound": "CN(C(=O)c1cc(-c2cc3c(cc2C(=O)N2Cc4ccccc4C[C@H]2CN2CCOCC2)CN(C(=O)COc2ccccc2)C3)n2c1CCCC2)c1ccc(O)cc1", "note": "[Example 156, N-(4-Hydroxyphenyl)-N-methyl-3-{6-[(3S)-3-(morpholin-4-ylmethyl)-1,2,3,4-tetrahydroisoquinoline-2-carbonyl]-2-(2-phenoxyacetyl)-2,3-dihydro-1H-isoindol-5-yl}-5,6,7,8-tetrahydroindolizine-1-carboxamide]", "values": [{"measurement": "IC50", "setting": "[1]", "result": 6.8, "unit": "nM"}, {"measurement": "IC50", "setting": "[2]; Homo sapiens", "result": 121, "unit": "nM"}]}, {"compound": "Cc1c(C(=O)N(C)c2ccc(O)cc2)cc(-c2cc3c(cc2C(=O)N2Cc4ccccc4C[C@H]2CN2CCOCC2)CN(C(=O)Oc2ccccc2)CC3)n1C", "note": "[Example 88, Phenyl 6-{4-[(4-hydroxyphenyl)(methyl)carbamoyl]-1,5-dimethyl-1H-pyrrol-2-yl}-7-[(3S)-3-(morpholin-4-ylmethyl)-1,2,3,4-tetrahydroisoquinoline-2-carbonyl]-1,2,3,4-tetrahydroisoquinoline-2-carboxylate hydrochloride]", "values": [{"measurement": "IC50", "setting": "[1]", "result": 3.5, "unit": "nM"}, {"measurement": "IC50", "setting": "[2]; Homo sapiens", "result": 3.9, "unit": "nM"}]}, {"compound": "C[C@@H]1Cc2ccccc2CN1C(=O)c1cc2c(cc1-c1cc(C(=O)N(C)c3ccc(O)cc3)c3n1CCCC3)CCN(C(=O)Cc1cccc(NCCN(C)C)c1)C2", "note": "[Example 123, 3-{2-[2-(3-{[2-(Dimethylamino)ethyl]amino}phenyl)acetyl]-7-[(3R)-3-methyl-1,2,3,4-tetrahydroisoquinoline-2-carbonyl]-1,2,3,4-tetrahydroisoquinolin-6-yl}-N-(4-hydroxyphenyl)-N-methyl-5,6,7,8-tetrahydroindolizine-1-carboxamide]", "values": [{"measurement": "IC50", "setting": "[1]", "result": 5.3, "unit": "nM"}, {"measurement": "IC50", "setting": "[2]; Homo sapiens", "result": 8.3, "unit": "nM"}]}]}
